Experimental findings from ChEMBL document CHEMBL1949621, “Fluorocyclines. 1. 7-fluoro-9-pyrrolidinoacetamido-6-demethyl-6-deoxytetracycline: a potent, broad spectrum antibacterial agent” (J Med Chem, 2012) are described below.

Common to all, as to assay type: functional
Experiment [1] relates to Klebsiella pneumoniae. As to the kind of experiment: Antibacterial activity against Klebsiella pneumoniae ATCC 109 13883.
The subject of experiment [2] is Enterococcus faecalis. As to the kind of experiment: Antibacterial activity against Enterococcus faecalis ATCC 103 29212.
Experiment [3] deals with Klebsiella pneumoniae. As to the kind of experiment: Antibacterial activity against tetracycline-resistant Klebsiella pneumoniae 153.
Experiment [4] deals with Streptococcus pneumoniae. Nature of the experiment: Antibacterial activity against tetracycline-resistant Streptococcus pneumoniae 160.
Experiment [5] deals with Enterobacter cloacae. As to the kind of experiment: Antibacterial activity against Enterobacter cloacae ATCC 108 13047.
In experiment [6] the test system is Pseudomonas aeruginosa. Nature of the experiment: Antibacterial activity against Pseudomonas aeruginosa ATCC 111 27853.
In experiment [7] the test system is Streptococcus pneumoniae. Nature of the experiment: microbe, parasite or virus in culture. Conditions: ATCC 106 49619.
Description: Antibacterial activity against Streptococcus pneumoniae ATCC 106 49619
Experiment [8] deals with Staphylococcus aureus. As to the kind of experiment: microbe, parasite or virus in culture. The settings on record: 158.
The test system of experiment [9] is Escherichia coli. As to the kind of experiment: Antibacterial activity against Escherichia coli ATCC 107 25922.
Experiment [10] concerns Escherichia coli. As to the kind of experiment: Antibacterial activity against tetracycline-resistant Escherichia coli 155.
Experiment [11] concerns Staphylococcus aureus. Nature of the experiment: Antibacterial activity against Staphylococcus aureus ATCC 101 29213.
In experiment [12] the test system is Acinetobacter baumannii. Nature of the experiment: Antibacterial activity against Acinetobacter baumannii ATCC 19606 110.
For experiment [13], the system named is Enterococcus faecalis. Nature of the experiment: Antibacterial activity against tetracycline-resistant Enterococcus faecalis 159.
Experiment [14] concerns Staphylococcus aureus. As to the kind of experiment: Antibacterial activity against tetracycline- and methicillin-resistant Staphylococcus aureus 161.

Converted amounts (≈) assume the structure as drawn.

For the compound `CN(C)[C@@H]1CCN(CC(=O)Nc2cc(F)c3c(c2O)C(=O)C2=C(O)[C@]4(O)C(=O)C(C(N)=O)=C(O)[C@@H](N(C)C)[C@@H]4C[C@@H]2C3)C1`, the MIC in [1] was more than 32 µg/mL; in [2], 16 µg/mL (≈ 26.6 µM); in [3], more than 32 µg/mL; in experiment [4] it was 4 µg/mL (≈ 6.65 µM); in experiment [5], more than 32 µg/mL; in [6] it was more than 32 µg/mL. Also, the MIC in [7] was 2 µg/mL (≈ 3.32 µM); in [8] it was more than 32 µg/mL; in [9], more than 32 µg/mL; in experiment [10] it was more than 32 µg/mL; in [11], 8 µg/mL (≈ 13.3 µM); in experiment [12] it was more than 32 µg/mL. Also, the MIC is 16 µg/mL (≈ 26.6 µM) in experiment [13] and more than 32 µg/mL in experiment [14].

For the compound `CN(C)[C@@H]1C(O)=C(C(N)=O)C(=O)[C@@]2(O)C(O)=C3C(=O)c4c(O)c(NC(=O)CN5CC[C@@H](F)C5)cc(F)c4C[C@H]3C[C@@H]12`, the MIC is 4 µg/mL (≈ 6.94 µM) in experiment [1]; 0.125 µg/mL (≈ 0.217 µM) in experiment [2]; 8 µg/mL (≈ 13.9 µM) in [3]; 0.0156 µg/mL (≈ 0.0271 µM) in [4]; 8 µg/mL (≈ 13.9 µM) in experiment [5]; more than 32 µg/mL in experiment [6]. Moreover, the MIC in [7] is 0.0156 µg/mL (≈ 0.0271 µM); in experiment [8] it was 0.5 µg/mL (≈ 0.867 µM); in experiment [9] it was 1 µg/mL (≈ 1.73 µM); in [10], 16 µg/mL (≈ 27.8 µM); in experiment [11] it was 0.25 µg/mL (≈ 0.434 µM); in experiment [12], 0.25 µg/mL (≈ 0.434 µM). In addition, the MIC in [13] was found to be 0.25 µg/mL (≈ 0.434 µM); in [14], 0.5 µg/mL (≈ 0.867 µM).

Consider `CN(C)CC(=O)Nc1cc(F)c2c(c1O)C(=O)C1=C(O)[C@]3(O)C(=O)C(C(N)=O)=C(O)[C@@H](N(C)C)[C@@H]3C[C@@H]1C2`, for which the MIC in [1] came out at 0.5 µg/mL (≈ 0.939 µM); in [2], 0.0156 µg/mL (≈ 0.0293 µM); in experiment [3], 8 µg/mL (≈ 15 µM); in [4] it was 0.0156 µg/mL (≈ 0.0293 µM); in experiment [5], 1 µg/mL (≈ 1.88 µM); in [6] it was 8 µg/mL (≈ 15 µM). Also, the MIC turned out to be 0.0156 µg/mL (≈ 0.0293 µM) in experiment [7]; 0.25 µg/mL (≈ 0.469 µM) in experiment [8]; 0.125 µg/mL (≈ 0.235 µM) in [9]; 8 µg/mL (≈ 15 µM) in [10]; 0.0156 µg/mL (≈ 0.0293 µM) in [11]; 0.125 µg/mL (≈ 0.235 µM) in experiment [12]. Further, the results for the MIC in [13] and in [14] were 0.0312 µg/mL (≈ 0.0586 µM) and 0.125 µg/mL (≈ 0.235 µM), respectively.

Turning to `CN(C)[C@@H]1C(O)=C(C(N)=O)C(=O)[C@@]2(O)C(O)=C3C(=O)c4c(O)c(NC(=O)CNc5cccnc5)cc(F)c4C[C@H]3C[C@@H]12`, the MIC in [1] was 32 µg/mL (≈ 55 µM); in [2] it was 8 µg/mL (≈ 13.8 µM); in experiment [3], more than 32 µg/mL; in experiment [4], 2 µg/mL (≈ 3.44 µM); in experiment [5] it was more than 32 µg/mL; in experiment [6], more than 32 µg/mL. In addition, the MIC was 0.25 µg/mL (≈ 0.43 µM) in experiment [7]; more than 32 µg/mL in experiment [8]; 16 µg/mL (≈ 27.5 µM) in experiment [9]; more than 32 µg/mL in [10]; 4 µg/mL (≈ 6.88 µM) in [11]; more than 8 µg/mL in experiment [12]. The MIC in experiment [13] and in experiment [14] was more than 32 µg/mL in each case.

As to `CN(C)[C@@H]1C(O)=C(C(N)=O)C(=O)[C@@]2(O)C(O)=C3C(=O)c4c(O)c(NC(=O)CN5CCCCC5)cc(F)c4C[C@H]3C[C@@H]12`, the MIC was 2 µg/mL (≈ 3.49 µM) in [1]; 0.25 µg/mL (≈ 0.437 µM) in experiment [2]; 4 µg/mL (≈ 6.99 µM) in experiment [3]; 0.0156 µg/mL (≈ 0.0272 µM) in experiment [4]; 4 µg/mL (≈ 6.99 µM) in [5]; 32 µg/mL (≈ 55.9 µM) in [6]. Besides, the MIC amounted to 0.0156 µg/mL (≈ 0.0272 µM) in experiment [7]; 0.5 µg/mL (≈ 0.873 µM) in experiment [8]; 1 µg/mL (≈ 1.75 µM) in [9]; 4 µg/mL (≈ 6.99 µM) in experiment [10]; 0.5 µg/mL (≈ 0.873 µM) in experiment [11]; 0.125 µg/mL (≈ 0.218 µM) in [12]. The results for the MIC in [13] and in experiment [14] were 0.5 µg/mL (≈ 0.873 µM) and 1 µg/mL (≈ 1.75 µM), respectively.

As to `CN(C)[C@@H]1C(O)=C(C(N)=O)C(=O)[C@@]2(O)C(O)=C3C(=O)c4c(O)c(NC(=O)CN5CC[C@H](F)C5)cc(F)c4C[C@H]3C[C@@H]12`, the MIC in experiment [1] was 4 µg/mL (≈ 6.94 µM); in experiment [2], 0.25 µg/mL (≈ 0.434 µM); in experiment [3] it was 32 µg/mL (≈ 55.5 µM); in experiment [4] it was 0.0156 µg/mL (≈ 0.0271 µM); in [5], 4 µg/mL (≈ 6.94 µM); in experiment [6], more than 32 µg/mL. For the same compound, the MIC was determined as 0.0156 µg/mL (≈ 0.0271 µM) in experiment [7]; 1 µg/mL (≈ 1.73 µM) in experiment [8]; 2 µg/mL (≈ 3.47 µM) in [9]; 32 µg/mL (≈ 55.5 µM) in experiment [10]; 0.25 µg/mL (≈ 0.434 µM) in [11]; 0.125 µg/mL (≈ 0.217 µM) in experiment [12]. For the same compound, the MIC came out at 0.25 µg/mL (≈ 0.434 µM) in experiment [13] and 0.5 µg/mL (≈ 0.867 µM) in [14].

As for `COCCNCC(=O)Nc1cc(F)c2c(c1O)C(=O)C1=C(O)[C@]3(O)C(=O)C(C(N)=O)=C(O)[C@@H](N(C)C)[C@@H]3C[C@@H]1C2`, the MIC came out at 2 µg/mL (≈ 3.56 µM) in [1]; 0.125 µg/mL (≈ 0.222 µM) in [2]; 8 µg/mL (≈ 14.2 µM) in experiment [3]; 0.0625 µg/mL (≈ 0.111 µM) in experiment [4]; 4 µg/mL (≈ 7.11 µM) in experiment [5]; 16 µg/mL (≈ 28.4 µM) in experiment [6]. The MIC in [7] is 0.0156 µg/mL (≈ 0.0277 µM); in experiment [8], 4 µg/mL (≈ 7.11 µM); in [9], 1 µg/mL (≈ 1.78 µM); in experiment [10] it was 16 µg/mL (≈ 28.4 µM); in experiment [11], 0.25 µg/mL (≈ 0.444 µM); in experiment [12], 2 µg/mL (≈ 3.56 µM). Besides, the MIC in [13] was found to be 1 µg/mL (≈ 1.78 µM); in experiment [14], 0.5 µg/mL (≈ 0.889 µM).
